The nature of series [1]: Kinetic solubility of the compound in HCl at pH 2 after 20 hrs by shake flask method. The class given is physicochemical. Conditions: read-out: Kinetic_solubility.
Series [2] in a line: Kinetic solubility of the compound in phosphate buffered saline at pH 6.5 after 20 hrs by shake flask method. The series is classed as physicochemical. The note with it: read-out: Kinetic_solubility.
A short description of series [3]: Kinetic solubility of the compound in FaSSIF at pH 6.5 after 20 hrs by shake flask method. The class given is physicochemical. Conditions: read-out: Kinetic_solubility.
Series [4] can be described thus: Drug metabolism in iv or po dosed Sprague-Dawley rat plasma assessed as oxidation of pyridine ring by LC-MS/MS method. The note with it: in vivo. The series is classed as ADME, organism-based.
A short description of series [5]: Drug metabolism in iv or po dosed Sprague-Dawley rat plasma assessed as oxidation of phenyl ring by LC-MS/MS method. The class given is ADME, organism-based. Conditions: in vivo.

The record followed here is ChEMBL document CHEMBL4184318, “Identification of Fast-Acting 2,6-Disubstituted Imidazopyridines That Are Efficacious in the in Vivo Humanized Plasmodium falciparum NODscidIL2Rγ null Mouse Model of Malaria” (J Med Chem, 2018).

Converted amounts (≈) assume the structure as drawn.

`Fc1ccc(-c2nc3cnc(Nc4ccccn4)cc3[nH]2)cc1F`: the solubility kinetic at 20 h is 125 µM (≈ 40.4 µg/mL) in series [1], < 5 µM in series [2] and 50 to 100 µM (≈ 16.2 to 32.3 µg/mL) in series [3].

For the compound `FC(F)(F)c1cccc(-c2nc3cnc(Nc4ccc(N5CCOCC5)cn4)cc3[nH]2)c1`, the solubility kinetic at 20 h in series [1] was 87 µM (≈ 38.3 µg/mL); in series [2], < 5 µM; in series [3], 35 µM (≈ 15.4 µg/mL).

On to `Fc1ccc(Nc2cc3[nH]c(-c4cccc(C(F)(F)F)c4)nc3cn2)nc1`, for which the solubility kinetic at 20 h in series [1] is < 5 µM; in series [2] it was < 5 µM; in series [3], 50 to 100 µM (≈ 18.7 to 37.3 µg/mL).

Consider `FC(F)(F)c1ccc(-c2nc3cnc(Nc4ccccn4)cc3[nH]2)cn1`, for which the results for the solubility kinetic at 20 h in series [1], in series [2] and in series [3] were 180 µM (≈ 64.1 µg/mL), < 5 µM and 50 to 100 µM (≈ 17.8 to 35.6 µg/mL), respectively.

As to `Fc1ccc(Nc2cc3[nH]c(-c4ccc(F)c(F)c4)nc3cn2)nc1`, the figures for the solubility kinetic at 20 h in series [1], in series [2] and in series [3] were 42 µM (≈ 14.3 µg/mL), < 5 µM and 50 to 100 µM (≈ 17.1 to 34.1 µg/mL), respectively. The values for the Drug metabolism result in series [4] and in series [5] were “Metabolite_Detected” and “Metabolite_Notdetected”, respectively.

On to `O=C(O)c1ccnc(Nc2cc3[nH]c(-c4cccc(C(F)(F)F)c4)nc3cn2)c1`, for which the solubility kinetic at 20 h is < 5 µM in series [1], < 5 µM in series [2] and 60 µM (≈ 24 µg/mL) in series [3].

As for `Fc1ccc(-c2nc3cnc(Nc4ccccn4)cc3[nH]2)cc1C(F)(F)F`, the solubility kinetic at 20 h in series [1] was 7 µM (≈ 2.61 µg/mL); in series [2], < 5 µM; in series [3], 50 to 100 µM (≈ 18.7 to 37.3 µg/mL).

On to `NC(=O)c1ccc(Nc2cc3[nH]c(-c4cccc(C(F)(F)F)c4)nc3cn2)nc1`, for which the solubility kinetic at 20 h in series [1], in series [2] and in series [3] was < 5 µM in each case.

For the compound `O=C(O)c1ccnc(Nc2cc3[nH]c(-c4ccc(C(F)(F)F)nc4)nc3cn2)c1`, the solubility kinetic at 20 h in series [1], in series [2] and in series [3] was < 5 µM in each case.

On to `FC(F)(F)c1ccc(Nc2cc3[nH]c(-c4cccc(C(F)(F)F)c4)nc3cn2)nc1`, for which the solubility kinetic at 20 h in series [1] is < 5 µM; in series [2], < 5 µM; in series [3], 50 to 100 µM (≈ 21.2 to 42.3 µg/mL). Further, the Drug metabolism entry in series [4] was “Metabolite_Detected”; in series [5], “Metabolite_Notdetected”.

With `FC(F)(F)c1cccc(-c2nc3cnc(Nc4cc(-c5nnn[nH]5)ccn4)cc3[nH]2)c1`, the solubility kinetic at 20 h in series [1], in series [2] and in series [3] was < 5 µM each time.

As to `FC(F)(F)c1cccc(-c2nc3cnc(Nc4ccc(-c5nnn[nH]5)cn4)cc3[nH]2)c1`, the solubility kinetic at 20 h in series [1], in series [2] and in series [3] was < 5 µM in each case.
